According to PubChem BioAssay (NCI):
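Cultured in 96-well plates, cells were exposed to test compound for 48 hours across five concentrations. GI50 is the concentration that inhibits growth by half. At the TGI there is no net growth.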

Tests used:
Test in all cases: inhibition of tumour cell growth, NCI panel, 48 h; in the data active = GI50 below about 0.43 µM; inactive = the rest
OVCAR-5 ovarian = system: OVCAR-5 ovarian
A549 NSCLC = system: A549 NSCLC
UACC-62 melanoma = system: UACC-62 melanoma
SW-620 colon = system: SW-620 colon
HOP-92 NSCLC = system: HOP-92 NSCLC
SF-268 CNS = system: SF-268 CNS
A498 renal = system: A498 renal
HOP-62 NSCLC = system: HOP-62 NSCLC
CAKI-1 renal = system: CAKI-1 renal
SF-295 CNS = system: SF-295 CNS
NCI/ADR-RES ovarian = system: NCI/ADR-RES ovarian
MALME-3M melanoma = system: MALME-3M melanoma
SK-MEL-2 melanoma = system: SK-MEL-2 melanoma
OVCAR-8 ovarian = system: OVCAR-8 ovarian
786-0 renal = system: 786-0 renal
ACHN renal = system: ACHN renal
HT29 colon = system: HT29 colon
KM12 colon = system: KM12 colon
SK-OV-3 ovarian = system: SK-OV-3 ovarian
M14 melanoma = system: M14 melanoma
K-562 leukemia = system: K-562 leukemia
SNB-75 CNS = system: SNB-75 CNS
SF-539 CNS = system: SF-539 CNS
HS 578T breast = system: HS 578T breast
SK-MEL-28 melanoma = system: SK-MEL-28 melanoma
SK-MEL-5 melanoma = system: SK-MEL-5 melanoma
NCI-H460 lung = system: NCI-H460 lung
LOX IMVI melanoma = system: LOX IMVI melanoma
MDA-MB-231 breast = system: MDA-MB-231 breast

Nc1ccc(S(=O)(=O)c2ccc(N)cc2)cc1
inactive: GI50 (OVCAR-5 ovarian) > 100 µM | GI50 (A549 NSCLC) > 100 µM | GI50 (UACC-62 melanoma) > 100 µM | GI50 (SW-620 colon) > 100 µM | GI50 (HOP-92 NSCLC) > 100 µM | GI50 (SF-268 CNS) > 100 µM | GI50 (A498 renal) 64.8 µM | GI50 (HOP-62 NSCLC) > 100 µM | GI50 (CAKI-1 renal) > 100 µM | GI50 (SF-295 CNS) > 100 µM | GI50 (NCI/ADR-RES ovarian) > 100 µM | GI50 (MALME-3M melanoma) > 100 µM | GI50 (SK-MEL-2 melanoma) > 100 µM | GI50 (OVCAR-8 ovarian) > 100 µM | GI50 (786-0 renal) > 100 µM | GI50 (ACHN renal) > 100 µM | GI50 (HT29 colon) > 100 µM | GI50 (KM12 colon) > 100 µM | GI50 (SK-OV-3 ovarian) > 100 µM | GI50 (M14 melanoma) > 100 µM | GI50 (K-562 leukemia) > 100 µM | GI50 (SNB-75 CNS) > 100 µM | GI50 (SF-539 CNS) > 100 µM | GI50 (HS 578T breast) 68.4 µM | GI50 (SK-MEL-28 melanoma) > 100 µM | GI50 (SK-MEL-5 melanoma) > 100 µM | GI50 (NCI-H460 lung) > 100 µM | GI50 (LOX IMVI melanoma) > 100 µM | GI50 (MDA-MB-231 breast) > 100 µM
> 100 µM: TGI (OVCAR-5 ovarian) | TGI (A549 NSCLC) | TGI (UACC-62 melanoma) | TGI (SW-620 colon) | TGI (HOP-92 NSCLC) | TGI (SF-268 CNS) | TGI (A498 renal) | TGI (HOP-62 NSCLC) | TGI (CAKI-1 renal) | TGI (SF-295 CNS) | TGI (NCI/ADR-RES ovarian) | TGI (MALME-3M melanoma) | TGI (SK-MEL-2 melanoma) | TGI (OVCAR-8 ovarian) | TGI (786-0 renal) | TGI (ACHN renal) | TGI (HT29 colon) | TGI (KM12 colon) | TGI (SK-OV-3 ovarian) | TGI (M14 melanoma) | TGI (K-562 leukemia) | TGI (SNB-75 CNS) | TGI (SF-539 CNS) | TGI (HS 578T breast) | TGI (SK-MEL-28 melanoma) | TGI (SK-MEL-5 melanoma) | TGI (NCI-H460 lung) | TGI (LOX IMVI melanoma) | TGI (MDA-MB-231 breast)
